Data as given in patent US20260048036A1, “CRYSTALLINE FORMS OF A GLUCOSYLCERAMIDE SYNTHASE INHIBITOR AND USES THEREOF” (ACELINK THERAPEUTICS, INC., priority 2022, published 2026).
In brackets after ≈: the same amount, converted by molar mass.

Columns and labels:
[1] = biological target: T1, Glucosylceramide synthase (GCS) (Homo sapiens, UniProt Q16739); experiment: GCS cell-based assay with live K-562 cells; settings: C6-NBD-glucosylceramide by LC-MS/MS
T1 construct: The MDCK, K-562, and L6 cell lines all endogenously express GCS enzyme; host or cells: K-562 human leukemia cells, live
T1 sequence (Q16739 1-394): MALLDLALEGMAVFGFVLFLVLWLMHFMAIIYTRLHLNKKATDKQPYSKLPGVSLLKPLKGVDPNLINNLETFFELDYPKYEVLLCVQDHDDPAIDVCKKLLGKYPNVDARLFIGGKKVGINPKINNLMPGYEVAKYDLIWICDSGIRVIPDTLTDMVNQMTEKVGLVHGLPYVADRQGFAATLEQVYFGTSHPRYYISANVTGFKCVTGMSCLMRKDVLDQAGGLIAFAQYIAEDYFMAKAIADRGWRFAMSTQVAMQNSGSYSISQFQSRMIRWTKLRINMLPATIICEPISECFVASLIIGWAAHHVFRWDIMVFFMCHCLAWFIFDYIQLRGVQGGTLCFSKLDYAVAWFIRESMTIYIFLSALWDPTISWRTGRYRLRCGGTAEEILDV
Excerpt: The reaction product, C6-NBD-glucosylceramide, could then be detected and quantified by LC-MS/MS. The inventors used this method to test and validate the effect of various GCS inhibitors on GCS enzyme activity from different species.
The GCS enzyme activity was detected by using the fluorescent substrate, C6-NBD-ceramide, and monitoring the formation of the fluorescent reaction product, C6-NBD-glucosylceramide. First, the inventors used cell lysate derived from a canine kidney cell line (MDCK, ATCC Cat #CCL-34™) as the source of GCS and tested the inhibitory activity of several control and test compounds.
The quantitative analysis of C6-NBD-glucosylceramide was performed on a Shimadzu ultra-fast liquid chromatography coupled with API 4000 mass spectrometer. Analyst 1.5 software packages were used to control the LC-MS/MS system, as well as for data acquisition and processing.
The C6-NBD-glucosylceramide reading was normalized first by dividing the peak area of C6-NBD-glucosylceramide with the peak area of the internal standard, and then the amount was calculated according to the standard curve generated in the same assay run. For the cell based assay results, the amount of C6-NBD-glucosylceramide was also normalized by the protein concentration of the cell samples. […]

[2] = Approximate solubility at 25° C. by visual observation; format: physicochemical; settings: thermodynamic from solid
Experimental: Free form Crystalline Form A of Compound 1 was used as the starting material for salt screening and selection study. […] Max. volume of each solvent added was 1 mL.

[3] = Competitive equilibration experiment (Form A + D + E slurry); format: physicochemical; settings: ethanol, acetone, acetonitrile at 5° C., 25° C. and 50° C., 3 days, XRPD
Experimental: Competitive slurry was conducted to determine thermodynamic relationships of Crystalline Form A, Crystalline Form D and Crystalline Form E of Compound 1. […] The mixtures were stirred at 5° C., 25° C. or 50° C. for 3 days. Obtained solid part (wet cake) was investigated by XRPD.

O=C(N[C@H](CN1CCCC1)[C@H](O)c1ccc(OC2CC2)c(Cl)c1)/C(=N/O)c1ccc2cc(Cl)ccc2c1 [Crystalline Form A of Compound 1]
IC50 [1]: 6.15 nM | solubility ([2]; organic solvent or mixture, Acetone): 16700 to 25000 µg/mL (≈ 30.8 to 46.1 mM) | solubility ([2]; organic solvent or mixture, Acetonitrile): < 5000 µg/mL | solubility ([2]; organic solvent or mixture, Ethanol): 5000 to 5500 µg/mL (≈ 9.22 to 10.1 mM) | solubility ([2]; organic solvent or mixture, Ethyl acetate): < 5000 µg/mL | solubility ([2]; Water): < 5000 µg/mL | thermodynamic stability in competitive slurry [3]: the most stable form
